Reference: patent US20060281766A1 (priority 2003, published 2006)
Read-outs that look alike come from different tables or passages of the source.

System: Phytophthora infestans
Type: in vivo
Conditions: individual active compound, tomato leaves, infected next day, assessed after 6 days

| Compound | Efficacy in % of the untreated control (0.25 ppm in the spray liquor) [%] | Efficacy in % of the untreated control (16 ppm in the spray liquor) [%] | Efficacy in % of the untreated control (1 ppm in the spray liquor) [%] |
| --- | --- | --- | --- |
| CC1CCN(c2c(-c3c(F)cc(F)cc3F)c(Cl)nc3ncnn23)CC1 [II, 5-chloro-7-(4-methylpiperidin-1-yl)-6-(2,4,6-trifluorophenyl)-[1,2,4]tri-azolo[1,5-a]pyrimidine] | 0 | 0 |  |
| C[C@H](Nc1c(-c2c(F)cc(F)cc2F)c(Cl)nc2ncnn12)C(F)(F)F [B] | 0 | 0 |  |
| CNC(=O)/C(=N/OC)c1ccccc1COc1cc(C)ccc1C [I, dimoxystrobin] | 0 |  | 56 |
| CC1CCN(c2c(-c3c(F)cccc3Cl)c(Cl)nc3ncnn23)CC1 [A] | 0 | 0 |  |
